{"source": "ChEMBL document CHEMBL4190187", "about": "“Discovery of pyrazolopyrimidine derivatives as novel inhibitors of ataxia telangiectasia and rad3 related protein (ATR)” (Bioorg Med Chem Lett, 2017)", "key": {"[1]": {"biological_target": "Mitogen-activated protein kinase kinase kinase kinase 2 (Homo sapiens) (UniProt Q12851)", "sequence (Q12851 whole entry, the tested form may be a part)": "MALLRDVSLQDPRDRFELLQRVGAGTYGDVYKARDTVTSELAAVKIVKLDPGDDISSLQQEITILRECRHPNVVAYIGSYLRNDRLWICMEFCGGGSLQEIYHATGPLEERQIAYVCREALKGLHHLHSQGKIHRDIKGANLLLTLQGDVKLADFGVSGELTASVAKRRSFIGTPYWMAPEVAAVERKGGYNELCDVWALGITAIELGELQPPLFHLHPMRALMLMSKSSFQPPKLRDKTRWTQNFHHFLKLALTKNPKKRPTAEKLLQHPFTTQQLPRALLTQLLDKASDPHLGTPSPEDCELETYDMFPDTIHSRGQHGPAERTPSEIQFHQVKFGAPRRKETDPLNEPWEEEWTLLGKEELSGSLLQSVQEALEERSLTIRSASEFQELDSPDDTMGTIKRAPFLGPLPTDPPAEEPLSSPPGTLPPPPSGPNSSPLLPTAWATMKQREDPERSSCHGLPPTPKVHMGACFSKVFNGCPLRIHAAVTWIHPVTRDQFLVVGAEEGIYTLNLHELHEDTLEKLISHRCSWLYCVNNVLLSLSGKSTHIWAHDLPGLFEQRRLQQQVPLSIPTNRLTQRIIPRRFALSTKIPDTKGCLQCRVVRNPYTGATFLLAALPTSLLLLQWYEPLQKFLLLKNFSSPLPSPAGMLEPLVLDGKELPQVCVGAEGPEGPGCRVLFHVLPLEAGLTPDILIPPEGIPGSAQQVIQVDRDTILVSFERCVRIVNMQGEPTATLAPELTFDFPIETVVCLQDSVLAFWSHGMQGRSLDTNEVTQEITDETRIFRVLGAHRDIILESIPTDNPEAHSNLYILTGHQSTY", "experiment": "Inhibition of recombinant human GCK (1 to 473 residues) at 1 uM using myelin basic protein as substrate after 40 mins in presence of [gamma-33P]ATP by scintillation counting method"}, "[2]": {"biological_target": "Protein kinase C iota type (Homo sapiens) (UniProt P41743)", "experiment": "Inhibition of recombinant full-length human PKCiota at 1 uM using ERMRPRKRQGSVRRRV as substrate after 40 mins in presence of [gamma-33P]ATP by scintillation counting method"}, "[3]": {"tested_on": "Mast/stem cell growth factor receptor Kit (Homo sapiens), P10721 [D816V]", "experiment": "Inhibition of recombinant human cKit D816V mutant (544 to end residues) at 1 uM using poly(Glu,Tyr) 4:1 as substrate after 40 mins in presence of [gamma-33P]ATP by scintillation counting method"}, "[4]": {"biological_target": "Homeodomain-interacting protein kinase 3 (Homo sapiens) (UniProt Q9H422)", "sequence (Q9H422 whole entry, looked up, the tested form may be a part)": "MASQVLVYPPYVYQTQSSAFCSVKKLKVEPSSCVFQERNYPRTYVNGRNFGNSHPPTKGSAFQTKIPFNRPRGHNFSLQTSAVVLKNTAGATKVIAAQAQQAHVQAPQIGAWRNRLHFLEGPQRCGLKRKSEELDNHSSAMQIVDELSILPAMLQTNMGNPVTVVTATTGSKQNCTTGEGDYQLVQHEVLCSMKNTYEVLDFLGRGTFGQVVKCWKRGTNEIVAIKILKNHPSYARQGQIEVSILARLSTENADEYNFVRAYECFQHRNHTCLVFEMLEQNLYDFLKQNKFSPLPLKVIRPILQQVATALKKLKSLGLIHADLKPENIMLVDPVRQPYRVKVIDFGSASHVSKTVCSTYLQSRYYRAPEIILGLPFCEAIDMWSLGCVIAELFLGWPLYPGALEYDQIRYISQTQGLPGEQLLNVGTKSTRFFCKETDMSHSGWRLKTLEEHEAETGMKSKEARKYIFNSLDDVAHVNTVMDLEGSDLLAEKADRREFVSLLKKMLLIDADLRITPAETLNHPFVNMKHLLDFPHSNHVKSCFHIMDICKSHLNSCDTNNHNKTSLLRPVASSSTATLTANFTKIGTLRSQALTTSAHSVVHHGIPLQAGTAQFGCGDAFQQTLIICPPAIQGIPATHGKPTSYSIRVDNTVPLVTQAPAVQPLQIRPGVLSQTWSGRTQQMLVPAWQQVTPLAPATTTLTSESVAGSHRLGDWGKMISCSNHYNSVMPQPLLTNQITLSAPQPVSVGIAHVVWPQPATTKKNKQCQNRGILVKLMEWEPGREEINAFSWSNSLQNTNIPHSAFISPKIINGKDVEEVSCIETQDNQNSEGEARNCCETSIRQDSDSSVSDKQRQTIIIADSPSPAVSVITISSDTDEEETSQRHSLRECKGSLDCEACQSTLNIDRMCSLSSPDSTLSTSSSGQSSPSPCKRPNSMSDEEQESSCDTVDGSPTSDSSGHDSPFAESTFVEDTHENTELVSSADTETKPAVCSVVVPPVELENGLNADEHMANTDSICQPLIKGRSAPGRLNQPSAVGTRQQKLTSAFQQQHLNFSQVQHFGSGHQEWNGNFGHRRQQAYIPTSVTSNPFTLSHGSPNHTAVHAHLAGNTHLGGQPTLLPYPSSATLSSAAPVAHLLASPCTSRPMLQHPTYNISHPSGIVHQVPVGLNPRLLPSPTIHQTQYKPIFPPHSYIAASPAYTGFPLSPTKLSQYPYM", "experiment": "Inhibition of recombinant human HIPK3 (161 to 562 residues) at 1 uM using myelin basic protein as substrate after 40 mins in presence of [gamma-33P]ATP by scintillation counting method"}, "[5]": {"biological_target": "Tyrosine-protein kinase CSK (Homo sapiens) (UniProt P41240)", "experiment": "Inhibition of recombinant full-length human CSK at 1 uM using poly(Glu,Tyr) 4:1 as substrate after 40 mins in presence of [gamma-33P]ATP by scintillation counting method"}, "[6]": {"biological_target": "Ephrin type-B receptor 1 (Homo sapiens) (UniProt P54762)", "experiment": "Inhibition of recombinant human EPHB1 (564 to end residues) at 1 uM using KVEKIGEGTYGVVYK as substrate after 40 mins in presence of [gamma-33P]ATP by scintillation counting method"}, "[7]": {"biological_target": "Tyrosine-protein kinase BTK (Homo sapiens, UniProt Q06187)", "experiment": "Inhibition of recombinant full-length human BTK at 1 uM using KVEKIGEGTYGVVYK as substrate after 40 mins in presence of [gamma-33P]ATP by scintillation counting method"}, "[8]": {"biological_target": "Fibroblast growth factor receptor 3 (Homo sapiens) (UniProt P22607)", "experiment": "Inhibition of recombinant human FGFR3 (447 to 761 residues) at 1 uM using poly(Glu,Tyr) 4:1 as substrate after 40 mins in presence of [gamma-33P]ATP by scintillation counting method"}, "[9]": {"biological_target": "Leukocyte tyrosine kinase receptor (Homo sapiens) (UniProt P29376)", "experiment": "Inhibition of recombinant human LTK (450 to end residues) at 1 uM using GEEPLYWSFPAKKK as substrate after 40 mins in presence of [gamma-33P]ATP by scintillation counting method"}, "[10]": {"tested_on": "Tyrosine-protein kinase ABL1 (Homo sapiens), P00519 [Y253F]", "experiment": "Inhibition of recombinant human Abl Y253F mutant (27 to end residues) at 1 uM using EAIYAAPFAKKK as substrate after 40 mins in presence of [gamma-33P]ATP by scintillation counting method"}, "[11]": {"biological_target": "Tyrosine-protein kinase Lyn (Homo sapiens) (UniProt P07948)", "experiment": "Inhibition of recombinant full-length human Lyn at 1 uM using poly(Glu,Tyr) 4:1 as substrate after 40 mins in presence of [gamma-33P]ATP by scintillation counting method"}, "[12]": {"biological_target": "Serine/threonine-protein kinase ATR (Homo sapiens, UniProt Q13535)", "experiment": "Inhibition of human recombinant FLAG-tagged full length ATR expressed in mammalian cell line co-expressing human recombinant cMyc-tagged full length ATRIP at 1 uM using GST-cMyc-p53 as substrate after 40 mins in presence of [gamma-33P]ATP by scintillation counting method"}, "[13]": {"biological_target": "Dual specificity mitogen-activated protein kinase kinase 6 (Homo sapiens) (UniProt P52564)", "experiment": "Inhibition of recombinant human MKK6 (4 to end residues) at 1 uM using inactive SAPK2a as substrate after 40 mins in presence of [gamma-33P]ATP by scintillation counting method"}, "[14]": {"biological_target": "Bone morphogenetic protein receptor type-2 (Homo sapiens) (UniProt Q13873)", "sequence (Q13873 whole entry, the tested form may be a part)": "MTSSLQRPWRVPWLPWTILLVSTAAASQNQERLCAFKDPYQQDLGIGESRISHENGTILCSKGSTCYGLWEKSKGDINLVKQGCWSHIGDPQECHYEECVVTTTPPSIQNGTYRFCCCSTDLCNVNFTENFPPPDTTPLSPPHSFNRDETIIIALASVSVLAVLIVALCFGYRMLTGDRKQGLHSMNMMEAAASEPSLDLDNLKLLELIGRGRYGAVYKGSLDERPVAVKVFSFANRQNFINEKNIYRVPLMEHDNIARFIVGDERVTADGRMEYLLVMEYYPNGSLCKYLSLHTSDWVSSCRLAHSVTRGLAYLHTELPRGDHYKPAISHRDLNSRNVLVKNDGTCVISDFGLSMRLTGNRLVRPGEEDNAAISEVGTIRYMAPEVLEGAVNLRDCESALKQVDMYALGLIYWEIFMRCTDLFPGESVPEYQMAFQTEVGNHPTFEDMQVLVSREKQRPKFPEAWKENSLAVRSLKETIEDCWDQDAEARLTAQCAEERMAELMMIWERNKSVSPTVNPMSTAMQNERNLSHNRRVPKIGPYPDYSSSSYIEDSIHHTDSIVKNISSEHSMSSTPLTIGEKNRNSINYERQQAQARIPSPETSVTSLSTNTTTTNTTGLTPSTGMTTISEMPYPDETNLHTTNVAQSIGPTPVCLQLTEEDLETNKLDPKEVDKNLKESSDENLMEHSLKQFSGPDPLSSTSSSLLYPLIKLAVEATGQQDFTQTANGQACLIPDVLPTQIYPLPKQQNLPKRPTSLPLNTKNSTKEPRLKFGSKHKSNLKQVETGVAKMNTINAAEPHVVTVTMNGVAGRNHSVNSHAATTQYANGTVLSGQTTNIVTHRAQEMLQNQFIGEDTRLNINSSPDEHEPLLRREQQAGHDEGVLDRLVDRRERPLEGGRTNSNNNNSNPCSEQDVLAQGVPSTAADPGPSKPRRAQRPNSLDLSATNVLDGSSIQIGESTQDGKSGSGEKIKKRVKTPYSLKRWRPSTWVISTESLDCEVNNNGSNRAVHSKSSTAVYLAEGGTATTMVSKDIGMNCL", "experiment": "Inhibition of recombinant human BMPR2 (172 to 734 residues) at 1 uM using myelin basic protein as substrate after 120 mins in presence of [gamma-33P]ATP by scintillation counting method"}, "[15]": {"biological_target": "Tyrosine-protein kinase ABL2 (Homo sapiens) (UniProt P42684)", "experiment": "Inhibition of recombinant human ARG (38 to end residues) at 1 uM using EAIYAAPFAKKK as substrate after 40 mins in presence of [gamma-33P]ATP by scintillation counting method"}, "[16]": {"biological_target": "Tyrosine-protein kinase FRK (Homo sapiens) (UniProt P42685)", "sequence (P42685 whole entry)": "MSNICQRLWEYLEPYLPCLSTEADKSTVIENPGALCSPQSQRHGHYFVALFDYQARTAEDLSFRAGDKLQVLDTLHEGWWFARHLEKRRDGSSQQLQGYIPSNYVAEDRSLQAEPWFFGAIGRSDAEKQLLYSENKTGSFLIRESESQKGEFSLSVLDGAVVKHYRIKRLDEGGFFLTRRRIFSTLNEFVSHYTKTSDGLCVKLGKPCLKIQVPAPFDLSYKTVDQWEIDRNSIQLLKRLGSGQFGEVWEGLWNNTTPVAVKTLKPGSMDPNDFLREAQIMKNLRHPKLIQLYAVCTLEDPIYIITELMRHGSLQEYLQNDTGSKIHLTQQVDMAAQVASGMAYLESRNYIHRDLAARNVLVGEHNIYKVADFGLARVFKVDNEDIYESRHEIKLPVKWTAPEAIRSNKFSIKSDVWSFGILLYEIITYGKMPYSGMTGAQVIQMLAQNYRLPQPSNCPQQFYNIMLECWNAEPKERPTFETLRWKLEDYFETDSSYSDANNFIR", "experiment": "Inhibition of recombinant human PTK5 (218 to end residues) at 1 uM using GGEEEEYFELVKKKK as substrate after 40 mins in presence of [gamma-33P]ATP by scintillation counting method"}, "[17]": {"biological_target": "Mitogen-activated protein kinase 11 (Homo sapiens) (UniProt Q15759)", "experiment": "Inhibition of recombinant full-length human SAPK2b at 1 uM using myelin basic protein as substrate after 40 mins in presence of [gamma-33P]ATP by scintillation counting method"}, "[18]": {"experiment": "Half life in mouse at 10 mg/kg, po", "type": "ADME, organism-based", "details": "in vivo"}, "[19]": {"biological_target": "Rhodopsin kinase GRK1 (Homo sapiens) (UniProt Q15835)", "experiment": "Inhibition of recombinant full-length human GRK1 at 1 uM using KKKKERLLDDRHDSGLDSMKDEE as substrate after 40 mins in presence of [gamma-33P]ATP by scintillation counting method"}, "[20]": {"biological_target": "Ephrin type-A receptor 1 (Homo sapiens) (UniProt P21709)", "experiment": "Inhibition of recombinant human EPHA1 ([…]) at 1 uM using KKKSPGEYVNIEFG as substrate after 40 mins in presence of [gamma-33P]ATP by scintillation counting method"}, "[21]": {"biological_target": "Homeodomain-interacting protein kinase 2 (Homo sapiens) (UniProt Q9H2X6)", "sequence (Q9H2X6 whole entry, looked up, the tested form may be a part)": "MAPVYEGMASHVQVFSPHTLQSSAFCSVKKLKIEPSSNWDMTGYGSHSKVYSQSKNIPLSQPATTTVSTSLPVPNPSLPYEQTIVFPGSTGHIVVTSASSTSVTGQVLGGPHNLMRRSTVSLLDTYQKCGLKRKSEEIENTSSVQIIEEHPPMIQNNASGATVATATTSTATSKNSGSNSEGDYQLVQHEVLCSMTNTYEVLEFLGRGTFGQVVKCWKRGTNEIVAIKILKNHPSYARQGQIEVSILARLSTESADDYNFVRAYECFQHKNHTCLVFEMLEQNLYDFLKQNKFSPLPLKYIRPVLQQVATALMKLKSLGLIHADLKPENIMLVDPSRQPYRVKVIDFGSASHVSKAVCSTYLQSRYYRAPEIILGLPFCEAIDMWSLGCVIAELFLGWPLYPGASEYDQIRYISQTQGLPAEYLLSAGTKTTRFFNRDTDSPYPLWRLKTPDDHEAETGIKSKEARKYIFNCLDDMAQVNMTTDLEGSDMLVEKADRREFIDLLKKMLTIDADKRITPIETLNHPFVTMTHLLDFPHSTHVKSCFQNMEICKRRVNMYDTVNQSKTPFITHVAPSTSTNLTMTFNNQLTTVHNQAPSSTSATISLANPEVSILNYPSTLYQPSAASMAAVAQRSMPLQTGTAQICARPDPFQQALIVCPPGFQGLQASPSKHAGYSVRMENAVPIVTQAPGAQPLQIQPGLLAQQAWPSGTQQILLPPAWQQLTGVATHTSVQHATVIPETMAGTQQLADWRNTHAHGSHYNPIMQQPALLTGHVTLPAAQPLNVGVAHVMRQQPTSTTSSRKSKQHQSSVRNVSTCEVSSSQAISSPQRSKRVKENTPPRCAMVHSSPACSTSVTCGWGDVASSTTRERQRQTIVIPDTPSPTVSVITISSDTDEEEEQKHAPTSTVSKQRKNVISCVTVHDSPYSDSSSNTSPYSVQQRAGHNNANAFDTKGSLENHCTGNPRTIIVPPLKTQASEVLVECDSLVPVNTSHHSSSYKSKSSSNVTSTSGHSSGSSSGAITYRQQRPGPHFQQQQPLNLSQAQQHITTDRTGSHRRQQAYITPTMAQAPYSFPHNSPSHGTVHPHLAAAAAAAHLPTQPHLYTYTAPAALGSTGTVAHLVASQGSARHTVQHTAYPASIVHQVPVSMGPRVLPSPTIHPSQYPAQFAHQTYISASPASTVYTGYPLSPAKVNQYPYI", "experiment": "Inhibition of recombinant human HIPK2 (165 to 564 residues) at 1 uM using myelin basic protein as substrate after 40 mins in presence of [gamma-33P]ATP by scintillation counting method"}, "[22]": {"biological_target": "Focal adhesion kinase 1 (Homo sapiens) (UniProt Q05397)", "experiment": "Inhibition of recombinant human FAK (411 to 686 residues) at 1 uM using EEEEYEEEEEEYYIIEEEEEEYEEEEEEYYEEEEEEKKKK as substrate after 40 mins in presence of [gamma-33P]ATP by scintillation counting method"}, "[23]": {"biological_target": "Dual specificity mitogen-activated protein kinase kinase 4 (Mus musculus) (UniProt P47809)", "experiment": "Inhibition of recombinant mouse MKK4 (34 to end residues) at 1 uM using inactive JNK1a1 as substrate after 40 mins in presence of [gamma-33P]ATP by scintillation counting method"}, "[24]": {"biological_target": "Dual specificity tyrosine-phosphorylation-regulated kinase 2 (Homo sapiens) (UniProt Q92630)", "experiment": "Inhibition of recombinant full-length human DYRK2 at 1 uM using casein as substrate after 40 mins in presence of [gamma-33P]ATP by scintillation counting method"}}, "data": [{"smiles": "CS(=O)(=O)c1ccc(-n2nc(-c3cnc4[nH]ccc4c3)c3c(N)ncnc32)cc1", "values": [{"measurement": "inhibition", "setting": "[1]", "result": 52, "unit": "%"}, {"measurement": "inhibition", "setting": "[2]", "result": 5, "unit": "%"}, {"measurement": "inhibition", "setting": "[3]", "result": -2, "unit": "%"}, {"measurement": "inhibition", "setting": "[4]", "result": 4, "unit": "%"}, {"measurement": "inhibition", "setting": "[5]", "result": 3, "unit": "%"}, {"measurement": "inhibition", "setting": "[6]", "result": 22, "unit": "%"}, {"measurement": "inhibition", "setting": "[7]", "result": 25, "unit": "%"}, {"measurement": "inhibition", "setting": "[8]", "result": 5, "unit": "%"}, {"measurement": "inhibition", "setting": "[9]", "result": -3, "unit": "%"}, {"measurement": "inhibition", "setting": "[10]", "result": 85, "unit": "%"}, {"measurement": "inhibition", "setting": "[11]", "result": 40, "unit": "%"}, {"measurement": "inhibition", "setting": "[12]", "result": 96, "unit": "%"}, {"measurement": "inhibition", "setting": "[13]", "result": 1, "unit": "%"}, {"measurement": "inhibition", "setting": "[14]", "result": 2, "unit": "%"}, {"measurement": "inhibition", "setting": "[15]", "result": 61, "unit": "%"}, {"measurement": "inhibition", "setting": "[16]", "result": 94, "unit": "%"}, {"measurement": "inhibition", "setting": "[17]", "result": -1, "unit": "%"}, {"measurement": "half-life", "setting": "[18]", "result": 2.28, "unit": "h"}, {"measurement": "inhibition", "setting": "[19]", "result": 10, "unit": "%"}, {"measurement": "inhibition", "setting": "[20]", "result": 24, "unit": "%"}, {"measurement": "inhibition", "setting": "[21]", "result": 3, "unit": "%"}, {"measurement": "inhibition", "setting": "[22]", "result": 3, "unit": "%"}, {"measurement": "inhibition", "setting": "[23]", "result": 10, "unit": "%"}, {"measurement": "inhibition", "setting": "[24]", "result": -10, "unit": "%"}]}]}
